# ChEMBL document CHEMBL4043290, “Structure-based Design of Pyridone-Aminal eFT508 Targeting Dysregulated Translation by Selective Mitogen-activated Protein Kinase Interacting Kinases 1 and 2 (MNK1/2) Inhibition” (J Med Chem, 2018)
# Activity calls are given as the source filed them. The calls are words filed in the database; no cut-off is given here.
# Legend:
# [1] = species: Homo sapiens; test: Effect on MAPK phosphorylation at Thr202/Tyr204 in human TMD8 cells at 0.01 to 10 uM after 2 hrs by immunoblot method; type: cell-based
# [2] = Therapeutic index, ratio of tumor growth inhibition of human HBL1 cells xenografted in NOD SCID mouse to body weight loss in NOD SCID mouse xenografted with human HBL1 cells
# [3] = biological target: T1, MAP kinase-interacting serine/threonine-protein kinase 1/2 (Homo sapiens, UniProt Q9HBH9+Q9BUB5); test: Inhibition of MNK1/2 in human TMD8 cells assessed as decrease in IL-6 levels after 48 hrs by ELISA; type: cell-based
# [4] = Oral bioavailability in cynomolgus monkey at 3 mg/kg by LC-ESI-TOF/MS or LC-ESI-MS/MS method; type: ADME, organism-based, Macaca fascicularis; conditions: in vivo
# [5] = Protein binding in human plasma; type: ADME, cell-free; conditions: read-out: PPB
# [6] = Antiproliferative activity against human T-ALL cells after 72 hrs by CellTiter-Glo assay; type: functional, cell-based
# [7] = Therapeutic index, ratio of tumor growth inhibition of human TMD8 cells xenografted in NOD SCID mouse to body weight loss in NOD SCID mouse xenografted with human TMD8 cells
# [8] = system: MDA-MB-231; test: Growth inhibition of human MDA-MB-231 cells after 72 hrs by CellTiter-Glo assay; type: functional, cell-based
# [9] = Metabolic stability in human liver microsomes assessed as parent compound remaining at 1 uM after 30 mins by LC-ESI-TOF/MS method; type: ADME, microsome; conditions: read-out: Stability
# [10] = system: TMD8; test: Effect on 4E-BP1 expression in human TMD8 cells after 2 hrs by immunoblot method; type: functional, cell-based
# [11] = Oral bioavailability in Beagle dog at 3 mg/kg by LC-ESI-TOF/MS or LC-ESI-MS/MS method; type: ADME, organism-based, Canis lupus familiaris; conditions: in vivo
# [12] = Antiproliferative activity against human B-PLL cells after 72 hrs by CellTiter-Glo assay; type: functional, cell-based
# [13] = biological target: Dual specificity protein kinase CLK4 (Homo sapiens, UniProt Q9HAZ1); test: Inhibition of CLK4 (unknown origin)
# [14] = Antiproliferative activity against human MCL cells after 72 hrs by CellTiter-Glo assay; type: functional, cell-based
# [15] = Protein binding in dog plasma; type: ADME, cell-free, Canis lupus familiaris; conditions: read-out: PPB
# [16] = biological target: Eukaryotic translation initiation factor 4E-binding protein 1 (Homo sapiens) (UniProt Q13541); test: Effect on 4E-BP1 phosphorylation at Thr37/46 in human TMD8 cells at 0.01 to 10 uM after 2 hrs by immunoblot method; type: cell-based
# [17] = system: Mus musculus; test: In vivo inhibition of MNK1/2 in human TMD8 cells xenografted in NOD SCID mouse assessed as reduction in eIF4E phosphorylation at Ser209 at 1 mg/kg, po qd administered for 14 days measured over 8 hrs post last dose by Western blot method relative to control; type: functional
# [18] = Antiproliferative activity against human AML cells after 72 hrs by CellTiter-Glo assay; type: functional, cell-based
# [19] = Antiproliferative activity against human DLBCL cells after 72 hrs by CellTiter-Glo assay; type: functional, cell-based
# [20] = Antitumor activity against human HBL1 cells xenografted in NOD SCID mouse assessed as tumor growth inhibition at 10 mg/kg, po qd administered for 12 days relative to control; type: functional; conditions: 288 h, read-out: TGI
# [21] = biological target: T1, MAP kinase-interacting serine/threonine-protein kinase 1/2; test: Inhibition of MNK1/2 in human TMD8 cells assessed as decrease in eIF4E phosphorylation at Ser209 after 2 hrs by immunoblot method; type: cell-based
# [22] = biological target: T1, MAP kinase-interacting serine/threonine-protein kinase 1/2; test: Inhibition of MNK1/2 in human TMD8 cells assessed as decrease in IL-8 mRNA half life at 10 uM incubated for 24 hrs by TaqMan assay relative to control; type: cell-based
# [23] = biological target: T1, MAP kinase-interacting serine/threonine-protein kinase 1/2; test: Inhibition of MNK1/2 in human TMD8 cells assessed as decrease in TNF-alpha mRNA half life at 10 uM incubated for 24 hrs by TaqMan assay relative to control; type: cell-based
# [24] = system: TMD8; test: Antitumor activity against human TMD8 cells xenografted in NOD SCID mouse assessed as tumor growth inhibition at 1 mg/kg, po qd administered for 14 days relative to control; type: functional; conditions: 336 h, read-out: TGI
# [25] = Antiproliferative activity against human CML cells after 72 hrs by CellTiter-Glo assay; type: functional, cell-based
# [26] = system: TMD8; test: Antitumor activity against human TMD8 cells xenografted in NOD SCID mouse assessed as tumor growth inhibition at 10 mg/kg, po qd administered for 14 days relative to control; type: functional; conditions: 336 h, read-out: TGI
# [27] = Protein binding in rat plasma; type: ADME, cell-free; conditions: read-out: PPB
# [28] = Protein binding in mouse plasma; type: ADME, cell-free; conditions: read-out: PPB
# [29] = system: Mus musculus; test: In vivo inhibition of MNK1/2 in human TMD8 cells xenografted in NOD SCID mouse assessed as reduction in eIF4E phosphorylation at Ser209 administered as po qd for 14 days measured over 24 hrs post last dose by Western blot method; type: functional, organism-based
# [30] = biological target: Serine/threonine-protein kinase 17A (Homo sapiens, UniProt Q9UEE5); test: Inhibition of DRAK1 (unknown origin)
# [31] = Metabolic stability in rat liver microsomes assessed as parent compound remaining at 1 uM after 30 mins by LC-ESI-TOF/MS method; type: ADME, microsome; conditions: read-out: Stability
# [32] = Antiproliferative activity against human B-ALL cells after 72 hrs by CellTiter-Glo assay; type: functional, cell-based
# [33] = system: Mus musculus; test: Toxicity in NCr nu/nu mouse xenografted with human MDA-MB-231 cells assessed as body weight loss at 1 to 10 mg/kg, po qd administered for 23 days measured twice a week during compound dosing; type: organism-based; conditions: in vivo, 552 h
# [34] = Antiproliferative activity against human multiple myeloma cells after 72 hrs by CellTiter-Glo assay; type: functional, cell-based; conditions: Multiple myeloma cell
# [35] = physchem; conditions: octanol/water
# [36] = system: Mus musculus; test: Toxicity in NOD SCID mouse xenografted with human TMD8 cells assessed as body weight loss at 1 to 10 mg/kg, po qd administered for 14 days measured twice a week during compound dosing; type: organism-based; conditions: in vivo, 336 h
# [37] = system: MDA-MB-231; test: Antitumor activity against human MDA-MB-231 cells xenografted in NCr nu/nu mouse assessed as tumor growth inhibition at 1 to 10 mg/kg, po qd administered for 23 days relative to control; type: functional
# [38] = Antitumor activity against human HBL1 cells xenografted in NOD SCID mouse assessed as tumor growth inhibition at 1 mg/kg, po qd administered for 12 days relative to control; type: functional; conditions: 288 h, read-out: TGI
# [39] = Oral bioavailability in Balb/c mouse at 10 mg/kg by LC-ESI-TOF/MS or LC-ESI-MS/MS method; type: ADME, organism-based; conditions: in vivo
# [40] = biological target: T1, MAP kinase-interacting serine/threonine-protein kinase 1/2; test: Inhibition of MNK1/2 in human TMD8 cells assessed as decrease in IL-6 mRNA half life at 10 uM incubated for 24 hrs by TaqMan assay relative to control; type: cell-based
# [41] = biological target: T1, MAP kinase-interacting serine/threonine-protein kinase 1/2; test: Inhibition of MNK1/2 in human TMD8 cells assessed as decrease in IL-8 levels after 48 hrs by ELISA; type: cell-based
# [42] = biological target: T1, MAP kinase-interacting serine/threonine-protein kinase 1/2; test: Inhibition of MNK1/2 in human TMD8 cells assessed as decrease in TNF-alpha levels after 48 hrs by ELISA; type: cell-based
# [43] = Antiproliferative activity against human ALCL cells after 72 hrs by CellTiter-Glo assay; type: functional, cell-based
# [44] = Therapeutic index, ratio of tumor growth inhibition of human MDA-MB-231 cells xenografted in NCr nu/nu mouse to body weight loss in NCr nu/nu mouse xenografted with human MDA-MB-231 cells
# [45] = Oral bioavailability in Sprague-Dawley rat at 10 mg/kg by LC-ESI-TOF/MS or LC-ESI-MS/MS method; type: ADME, organism-based; conditions: in vivo
# [46] = Protein binding in monkey plasma; type: ADME, cell-free, Macaca mulatta; conditions: rhesus monkey, read-out: PPB
# [47] = Metabolic stability in mouse liver microsomes assessed as parent compound remaining at 1 uM after 30 mins by LC-ESI-TOF/MS method; type: ADME, microsome; conditions: read-out: Stability
# [48] = system: Mus musculus; test: Toxicity in NOD SCID mouse xenografted with human HBL1 cells assessed as body weight loss at 1 to 10 mg/kg, po qd administered for 12 days measured twice a week during compound dosing; type: organism-based; conditions: in vivo, 288 h
# [49] = in vitro; conditions: human, Caco-2
# [50] = Antiproliferative activity against human Burkitt lymphoma cells after 72 hrs by CellTiter-Glo assay; type: functional, cell-based; conditions: Burkitt lymphoma cell
# Chain of Serine/threonine-protein kinase 17A (Q9UEE5 whole entry): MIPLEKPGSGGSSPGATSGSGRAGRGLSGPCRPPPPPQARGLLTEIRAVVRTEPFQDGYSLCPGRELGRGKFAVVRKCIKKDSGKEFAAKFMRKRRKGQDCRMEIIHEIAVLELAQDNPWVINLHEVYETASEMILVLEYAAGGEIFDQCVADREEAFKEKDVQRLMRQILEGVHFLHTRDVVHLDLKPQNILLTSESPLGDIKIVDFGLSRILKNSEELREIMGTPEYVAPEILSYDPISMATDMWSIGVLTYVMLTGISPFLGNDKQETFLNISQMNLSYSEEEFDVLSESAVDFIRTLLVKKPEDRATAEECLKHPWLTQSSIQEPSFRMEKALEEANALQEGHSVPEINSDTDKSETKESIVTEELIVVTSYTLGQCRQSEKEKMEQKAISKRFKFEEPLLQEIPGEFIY
# Chain of Dual specificity protein kinase CLK4 (Q9HAZ1 whole entry): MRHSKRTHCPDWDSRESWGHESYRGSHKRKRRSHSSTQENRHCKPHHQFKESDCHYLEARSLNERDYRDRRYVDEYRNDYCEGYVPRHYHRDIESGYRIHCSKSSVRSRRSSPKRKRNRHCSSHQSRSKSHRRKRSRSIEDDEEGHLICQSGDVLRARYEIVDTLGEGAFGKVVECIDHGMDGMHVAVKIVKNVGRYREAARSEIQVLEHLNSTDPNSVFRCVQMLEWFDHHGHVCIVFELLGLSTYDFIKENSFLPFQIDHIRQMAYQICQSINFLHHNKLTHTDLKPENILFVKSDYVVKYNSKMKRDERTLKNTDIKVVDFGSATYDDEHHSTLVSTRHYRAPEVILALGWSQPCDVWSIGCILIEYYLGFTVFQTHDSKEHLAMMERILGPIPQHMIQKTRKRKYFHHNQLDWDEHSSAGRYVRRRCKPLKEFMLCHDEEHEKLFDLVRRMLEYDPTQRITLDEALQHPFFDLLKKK
# Chain of Eukaryotic translation initiation factor 4E-binding protein 1 (Homo sapiens) (Q13541 whole entry): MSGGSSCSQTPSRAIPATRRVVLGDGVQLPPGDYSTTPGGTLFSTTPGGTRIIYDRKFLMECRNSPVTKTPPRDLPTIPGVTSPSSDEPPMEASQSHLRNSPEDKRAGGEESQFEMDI
smiles,measurement,setting,value
Cc1cc(Nc2cc(N)ncn2)c(=O)n2c1C(=O)NC21CCCCC1 [TOMIVOSERTIB],Activity,[1],inactive
same,TI,[2],>=10
same,inhibition,[3],Dose-dependent effect
same,bioavailability,[4],24%
same,fraction unbound,[5],0.5
same,IC50,[6],> 30 µM
same,TI,[7],>=10
same,growth inhibition (GI),[8],inactive
same,"remaining at 0.5 h, 1 µM",[9],87%
same,Activity,[10],inactive
same,bioavailability,[11],> 100%
same,IC50,[12],> 30 µM
same,IC50,[13],0.787 µM
same,IC50,[14],> 30 µM
same,fraction unbound,[15],0.5
same,Activity,[16],inactive
same,inhibition in vivo at 1 mg/kg,[17],80%
same,IC50,[18],> 30 µM
same,IC50,[19],< 10 µM
same,inhibition in vivo at 10 mg/kg,[20],96%
same,inhibition,[21],Dose-dependent effect
same,fold change (FC),[22],1.5 to 2
same,fold change (FC),[23],1.5 to 2
same,inhibition in vivo at 1 mg/kg,[24],71%
same,IC50,[25],> 30 µM
same,inhibition in vivo at 10 mg/kg,[26],75%
same,fraction unbound,[27],0.5
same,fraction unbound,[28],0.5
same,IC90,[29],0.376 µM
same,IC50,"[29]; Mus musculus, TMD8",0.0158 µM
same,IC50,[30],0.131 µM
same,"remaining at 0.5 h, 1 µM",[31],93%
same,IC50,[32],> 30 µM
same,Activity,[33],Non-Toxic
same,IC50,[34],< 10 µM
same,logP,[35],2.7
same,Activity,[36],Non-Toxic
same,TGI,[37],>100%
same,inhibition in vivo at 1 mg/kg,[38],66%
same,bioavailability,[39],79%
same,fold change (FC),[40],1.5 to 2
same,inhibition,[41],Dose-dependent effect
same,inhibition,[42],Dose-dependent effect
same,IC50,[43],> 30 µM
same,TI,[44],>=10
same,bioavailability,[45],85%
same,fraction unbound,[46],0.5
same,"remaining at 0.5 h, 1 µM",[47],90%
same,Activity,[48],Non-Toxic
same,"Papp A→B at 2 h, 5 µM",[49],7.1 ×10⁻⁶ cm/s
same,IC50,[50],> 30 µM
